In US20190070208A1, “USE OF TRIACETYL-3-HYDROXYPHENYLADENOSINE IN PREPARING PHARMACEUTICALS FOR TREATMENT OF ATHEROSCLEROSIS” (priority 2016, published 2019):
Where “and” joins values, the source holds several entries; their conditions need not be identical. Equal entries are not always repeated.

Columns and labels:
Type in all cases: in vivo
Design in all cases: unit not given here
[1] = system: circulating blood mononuclear cells; assay: Circulating blood mononuclear cells of high-fat-fed Syrian golden hamsters (whole blood cell analyzer); conditions: gavage twice a day, high-fat feedstuff hamsters, individual animal values (n=13)
Experimental: […] Syrian golden hamsters (LVG hamsters, introduced from Charles River Laboratories) aged 6-8 weeks, weighing 90-120 g, male, SPF grade and purchased from Beijing Vital River Laboratory Animal Technology Co., Ltd.
After 7 days of adaptive feeding, animals were randomly divided into a normal control group (n=13), a high-fat feedstuff group (n=13), an IMMH007 low-dose group (50 mg/kg, n=13), an IMMH007 medium-dose group (100 mg/kg, n=13), and an IMMH007 high-dose group (200 mg/kg, n=13), and they were administered twice a day by gavage. The animals were fed in the Second Department of Animal Experiment Center of the Institute of Materia Medica (IMM) at Chinese Academy of Medical Sciences (CAMS); the feeding condition was SPF grade, the temperature was 21±2 DEG C, relative humidity was 50±5%, lighting cycle was 12/12, and 5 per cage. The normal group was fed with normal basal feedstuff, and the high-fat feedstuff group was fed with high fat feedstuff (79.8% of basal feedstuff, 20% of lard, and 0.2% of cholesterol), and the animals were free to take food and drink. The feedstuff was produced by Beijing HFK Bioscience Co., Ltd.
The animals were fasted for 12 hours, and about 200 ul of blood was taken from the canthus of each eye, the blood was dissolved in 30ul of EDTA-2K anticoagulant (20g/L, prepared with normal saline), mixed slightly to avoid coagulation, and the whole blood cells were analyzed by a whole blood cell analyzer.

[2] = system: circulating blood mononuclear cells; assay: Circulating blood mononuclear cells of high-fat-fed apoE-/- mice (flow cytometry); conditions: gavage once a day, high-fat diet apoE-/- mice
Experimental: (§1) ApoE-/-mice (C57BL background), 5-7 weeks old, body weight 18-22 g, male, SPF grade; Purchased from Beijing institute of Laboratory Animal Science.
(§2) After 7 days of adaptive feeding, animals were randomly divided into a high-fat feedstuff group (n=7), an MMH007 low-dose group (50 mg/kg, n=7), an IMMH007 medium-dose group (100 mg/kg, n=7), and an IMMH007 high-dose group (200 mg/kg, n=9), and they were administered once a day by gavage. The animals were fed in the Second Department of Animal Experiment Center of the Institute of Materia Medica (IMM) at Chinese Academy of Medical Sciences (CAMS); the feeding condition was SPF grade, the temperature was 21±2 DEG C, relative humidity was 50±5%, lighting cycle was 12/12, and 5 per cage. All groups were given high-fat diet (70% of basal diet plus 20% of lard and 0.2% of cholesterol) and the animals were free to take food and drink. The feedstuff was produced by Beijing HFK Bioscience Co., Ltd. Body weight was recorded once every week during the experiment.
(§3) The animals were fasted for 12 hours and the following cells were extracted:
(§4) Recirculating blood cells: 50 ul of blood was taken by cardiocentesis, placed in 450 ul of heparin anticoagulant, 1 ml of red blood cell lysis buffer was added, lysed for 10 minutes, centrifuged at 1800 r for 3 min, the supernatant was aspirated, and 100 ul of PBS suspension cells were obtained for subsequent use. The mouse was taken blood from the angular vein to be dead and serum was separated and stored at −80 DEG C.
(§5) Antibodies were added to the above blood cells:
(§6) 3 ul of CD90-PE, 3 ul of B220-PE, 3 ul of CD49b-PE, 3 ul of NK1.1-PE, 3 ul of Ly-6G-PE, 6 ul of CD11b-percp, and 3 ul of Ly-6C-FITC, a single positive tube and a blank control tube were provided, they were incubated with smoothie for 30 min, washed 3 times with PBS, and re-selected cells with 400 ul of PBS, filtered, and flow cytometry was carried out. The mononuclear cells were identified as CD11b^hiCD90^loB220^loCD49b^loNK1.1^loLy-6G^lo cells. […]

[3] = system: circulating blood inflammatory mononuclear cells (Ly6C^hi); assay: Circulating blood inflammatory (Ly6Chi) mononuclear cells of high-fat-fed apoE-/- mice (flow cytometry); conditions: gavage once a day, high-fat diet apoE-/- mice
Experimental: as §1, §2, §3, §4, §5, §6

[4] = IMM-H007 50 mg/kg, individual animal values (n=7), 50 mg/kg
[5] = IMM-H007 100 mg/kg, individual animal values (n=7), 100 mg/kg
[6] = IMM-H007 200 mg/kg, individual animal values (n=9), 200 mg/kg

## CC(=O)OCC1OC(n2cnc3c(Nc4cccc(O)c4)ncnc32)C(OC(C)=O)C1OC(C)=O (stereo not drawn) [IMM-H007, Triacetyl-3-Hydroxyphenyladenosine]
[1]; IMM-H007 50 mg/kg, 50 mg/kg
  circulating blood mononuclear cells: 6.63 and 5.31 and 7.58 and 11.2 and 10.1 and 11 and 10.4 and 9.08 and 6.95 and 8.24 and 9.21 and 6.5 and 8.91
[1]; IMM-H007 100 mg/kg, 100 mg/kg
  circulating blood mononuclear cells: 6.23 and 4.18 and 3.87 and 6.05 and 6.02 and 7.99 and 6.79 and 9.61 and 6.42 and 10.4 and 6.8 and 7.54 and 4.56
[1]; IMM-H007 200 mg/kg, 200 mg/kg
  circulating blood mononuclear cells: 4.42 and 6.33 and 9.94 and 9.51 and 10.3 (2×) and 6.28 and 9.61 and 9.85 and 10.8 and 8.52 and 9.23 and 5.7
[2]; [4]
  circulating blood mononuclear cells: 0.54 and 0.49 (2×) and 1.23 and 0.66 and 0.63 and 0.26
[2]; [5]
  circulating blood mononuclear cells: 0.79 and 0.48 and 0.30 and 0.14 and 0.29 and 0.27 and 0.25
[2]; [6]
  circulating blood mononuclear cells: 0.18 (2×) and 0.69 and 0.28 and 0.24 and 0.27 and 0.23 and 0.21 and 0.10
[3]; [4]
  circulating blood inflammatory mononuclear cells: 0.33 and 0.86 and 0.18 and 0.23 and 0.89 and 0.16 and 0.49
[3]; [5]
  circulating blood inflammatory mononuclear cells: 0.31 and 0.19 and 0.32 and 0.29 and 0.30 and 0.89 and 0.26
[3]; [6]
  circulating blood inflammatory mononuclear cells: 0.19 and 0.35 and 0.17 and 0.20 and 0.30 and 0.13 and 0.15 and 0.28 and 0.21
